Assays:
Alpha amylase = target: T1, Alpha amylase (Homo sapiens, UniProt P0DUB6); assay: Inhibition of alpha amylase (unknown origin) measured after 20 to 25 mins
T1 sequence (P0DUB6 whole entry): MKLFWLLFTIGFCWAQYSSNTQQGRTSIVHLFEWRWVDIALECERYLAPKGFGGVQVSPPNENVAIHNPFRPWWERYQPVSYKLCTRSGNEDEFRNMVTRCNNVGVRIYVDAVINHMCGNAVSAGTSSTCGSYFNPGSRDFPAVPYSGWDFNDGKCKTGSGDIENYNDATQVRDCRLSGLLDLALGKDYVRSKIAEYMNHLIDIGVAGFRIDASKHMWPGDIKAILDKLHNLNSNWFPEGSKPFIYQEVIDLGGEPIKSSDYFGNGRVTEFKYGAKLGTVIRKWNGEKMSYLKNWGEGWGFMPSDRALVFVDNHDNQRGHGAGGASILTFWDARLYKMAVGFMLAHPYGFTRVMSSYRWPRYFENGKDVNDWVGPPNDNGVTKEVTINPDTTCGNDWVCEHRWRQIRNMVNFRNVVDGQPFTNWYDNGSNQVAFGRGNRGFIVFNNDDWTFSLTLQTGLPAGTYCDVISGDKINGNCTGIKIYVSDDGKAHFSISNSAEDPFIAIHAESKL

[1] = system: voltage dependent L/T-type calcium channel; assay: Inhibition of voltage dependent L/T-type calcium channel in human SH-SY5Y cells; settings: sh-sy5y
INS1 [2] = assay: Induction of apoptosis in rat INS1 cells assessed as early apoptotic cells at 1 uM incubated for 36 hrs by Annexin V-FITC/ propidium iodide staining based flow cytometry analysis (reference value: 0.34%); assay type: functional
INS1 [3] = assay: Induction of apoptosis in rat INS1 cells assessed as total apoptotic cells at 1 uM incubated for 36 hrs by Annexin V-FITC/ propidium iodide staining based flow cytometry analysis (reference value: 0.53%); assay type: functional
[4] = Toxicity in high fat diet-STZ-induced diabetic Swiss albino mouse model assessed as changes in body weight at 0.2 mmol/Kg/day, po administered for 14 days (reference value: 26.6 to 27.8 g); assay type: organism-based; settings: in vivo, 336 h, time 14 day
Mus musculus [5] = assay: Antidiabetic activity against high fat diet-STZ-induced diabetic Swiss albino mouse model assessed as reduction in blood glucose level at 0.2 mmol/Kg/day, po administered for 14 days; assay type: functional; settings: time 14 day
Mus musculus [6] = assay: Antidiabetic activity against high fat diet-STZ-induced diabetic Swiss albino mouse model assessed as reduction in blood glucose level at 0.2 mmol/Kg/day, po administered for 14 days relative to control; assay type: functional; design: scale not given: the % may be the effect or the level left; settings: time 14 day
Mus musculus [7] = assay: Antidiabetic activity against high fat diet-STZ-induced diabetic Swiss albino mouse model assessed as serum insulin level at 0.2 mmol/Kg/day, po administered for 14 days by ELISA method (reference value: 16.37 +/- 0.62 uU/ml); assay type: functional; settings: time 14 day
Mus musculus [8] = assay: Antidiabetic activity against high fat diet-STZ-induced diabetic Swiss albino mouse model assessed as insulin resistance by measuring serum TNFalpha level at 0.2 mmol/Kg/day, po administered for 14 days by ELISA method (reference value: 376.50+/-14.50 ng/ml); assay type: functional; settings: time 14 day
Mus musculus [9] = assay: Antidiabetic activity against high fat diet-STZ-induced diabetic Swiss albino mouse model assessed as insulin resistance by measuring serum IL6 level at 0.2 mmol/Kg/day, po administered for 14 days by ELISA method (reference value: 39.30+/-4.14 pg/ml); assay type: functional; settings: time 14 day
Mus musculus [10] = assay: Antioxidant activity against high fat diet-STZ-induced diabetic Swiss albino mouse model assessed as serum SOD level at 0.2 mmol/Kg/day, po administered for 14 days (reference value: 273.01+/- 6.23 U/ml); assay type: functional; settings: time 14 day
Mus musculus [11] = assay: Antioxidant activity against high fat diet-STZ-induced diabetic Swiss albino mouse model assessed as serum catalase level at 0.2 mmol/Kg/day, po administered for 14 days (reference value: 378.22+/- 14.45 U/ml); assay type: functional; settings: time 14 day
Mus musculus [12] = assay: Antioxidant activity against high fat diet-STZ-induced diabetic Swiss albino mouse model assessed as serum MDA level at 0.2 mmol/Kg/day, po administered for 14 days (reference value: 8.70+/- 0.09 nmol/ml); assay type: functional; settings: time 14 day
INS1 [13] = assay: Induction of apoptosis in rat INS1 cells assessed as late apoptotic cells at 1 uM incubated for 36 hrs by Annexin V-FITC/ propidium iodide staining based flow cytometry analysis (reference value: 0.19%); assay type: functional
INS1 [14] = assay: Induction of apoptosis in rat INS1 cells assessed as necrotic cells at 1 uM incubated for 36 hrs by Annexin V-FITC/ propidium iodide staining based flow cytometry analysis (reference value: 1.15%); assay type: functional
[15] = Cytotoxicity against human MCF-10F cells assessed as cell growth inhibition at 10 uM relative to control; assay type: toxicity, cell-based; settings: read-out: GI
[16] = Cytotoxicity against human MRC5 cells assessed as cell growth inhibition at 10 uM relative to control; assay type: toxicity, cell-based; settings: read-out: GI
[17] = Cytotoxicity against human THLE-2 cells assessed as cell growth inhibition at 10 uM relative to control; assay type: toxicity, cell-based; settings: read-out: GI
[18] = Cytotoxicity against human BJ cells assessed as cell growth inhibition at 10 uM relative to control; assay type: toxicity, cell-based; settings: read-out: GI
[19] = Cytotoxicity against human ECT1/E6E7 cells assessed as cell growth inhibition at 10 uM relative to control; assay type: toxicity, cell-based; settings: read-out: GI
[20] = Cytotoxicity against human HCN-1A cells assessed as cell growth inhibition at 10 uM relative to control; assay type: toxicity, cell-based; settings: read-out: GI
[21] = Cytotoxicity against HEK293 cells assessed as cell growth inhibition at 10 uM relative to control; assay type: toxicity, cell-based; settings: human, read-out: GI
[22] = Cytotoxicity against human WPE1-NA22 cells assessed as cell growth inhibition at 10 uM relative to control; assay type: toxicity, cell-based; settings: read-out: GI
Mus musculus [23] = assay: Antidiabetic activity against high fat diet-STZ-induced diabetic Swiss albino mouse model assessed as reduction in blood glucose level at 0.2 mmol/Kg/day, po administered for 14 days relative to glimepiride; assay type: functional; design: scale not given: the % may be the effect or the level left; settings: time 14 day
[24] = Acute toxicity in Swiss albino mouse assessed as effect on mortality up to 2000 mg/kg, po administered for 14 days; assay type: organism-based; settings: in vivo, 336 h, time 14 day
[25] = Acute toxicity in Swiss albino mouse assessed as effect on behavioural change up to 2000 mg/kg, po administered for 14 days; assay type: organism-based; settings: in vivo, 336 h, time 14 day
[26] = Acute toxicity in Swiss albino mouse assessed as effect on motor alterations up to 2000 mg/kg, po administered for 14 days; assay type: organism-based; settings: in vivo, 336 h, time 14 day
[27] = Acute toxicity in Swiss albino mouse assessed as toxic symptoms up to 2000 mg/kg, po administered for 14 days; assay type: organism-based; settings: in vivo, 336 h, time 14 day
[28] = Cytotoxicity against human MCF-10F cells assessed as cell growth inhibition; assay type: toxicity, cell-based
[29] = Cytotoxicity against human MRC5 cells assessed as cell growth inhibition; assay type: toxicity, cell-based
[30] = Cytotoxicity against human THLE-2 cells assessed as cell growth inhibition; assay type: toxicity, cell-based
[31] = Cytotoxicity against human BJ cells assessed as cell growth inhibition; assay type: toxicity, cell-based
[32] = Cytotoxicity against human ECT1/E6E7 cells assessed as cell growth inhibition; assay type: toxicity, cell-based
[33] = Cytotoxicity against human HCN-1A cells assessed as cell growth inhibition; assay type: toxicity, cell-based
[34] = Cytotoxicity against HEK293 cells assessed as cell growth inhibition; assay type: toxicity, cell-based; settings: human
[35] = Cytotoxicity against human WPE1-NA22 cells assessed as cell growth inhibition; assay type: toxicity, cell-based

Compound	Activity [4]	Activity (Mus musculus [5])	Activity (Mus musculus [6])	Activity (Mus musculus [23])	Activity [24]	Activity [25]	Activity [26]	Activity [27]	further results
O=c1c(O)c(-c2ccc(O)c(O)c2)oc2cc(O)cc(O)c12 [QUERCETIN]	–	–	–	–	–	–	–	–	IC50 (Alpha amylase): 8.21 µM
COC(=O)C1=C(C)NC(C)=C(C(=O)OC)C1c1ccccc1[N+](=O)[O-] [NIFEDIPINE]	–	–	–	–	–	–	–	–	IC50 [1]: 21.9 µM
CCC1=C(C)CN(C(=O)NCCc2ccc(S(=O)(=O)NC(=O)N[C@H]3CC[C@H](C)CC3)cc2)C1=O [GLIMEPIRIDE]	30.92 g	198.3 mg/dL	33.5%	–	–	–	–	–	Activity (INS1 [2]): 0.49%; Activity (INS1 [3]): 0.76%; Activity (Mus musculus [7]): 11.88 uU/ml; Activity (Mus musculus [8]): 639.5 ng/mL; Activity (Mus musculus [9]): 195.75 pg/mL; Activity (Mus musculus [10]): 202.06 U/ml; Activity (Mus musculus [11]): 199.33 U/ml; Activity (Mus musculus [12]): 14.52 nmol/mL; Activity (INS1 [13]): 0.27%; Activity (INS1 [14]): 2.86%; inhibition at 10 µM [15]: 27.1%; inhibition at 10 µM [16]: 24.2%; inhibition at 10 µM [17]: 28.8%; inhibition at 10 µM [18]: 35.8%; inhibition at 10 µM [19]: 22%; inhibition at 10 µM [20]: 41.6%; inhibition at 10 µM [21]: 74%; inhibition at 10 µM [22]: 27.8%
C[C@H]1O[C@H](O[C@H]2[C@H](O)[C@@H](O)[C@@H](O[C@H]3[C@H](O)[C@@H](O)C(O)O[C@@H]3CO)O[C@@H]2CO)[C@H](O)[C@@H](O)[C@@H]1N[C@H]1C=C(CO)[C@@H](O)[C@H](O)[C@H]1O (some centres not stated) [ACARBOSE]	–	–	–	–	–	–	–	–	inhibition at 10 µM [15]: 10.5%; inhibition at 10 µM [16]: 32.3%; inhibition at 10 µM [17]: 19.1%; inhibition at 10 µM [18]: 47.8%; inhibition at 10 µM [19]: 20.1%; inhibition at 10 µM [20]: 44.3%; inhibition at 10 µM [21]: 80.7%; inhibition at 10 µM [22]: 55.3%
CN(N=O)C(=O)N[C@@H](C=O)[C@@H](O)[C@H](O)[C@H](O)CO [STREPTOZOCIN]	–	–	–	–	–	–	–	–	Activity (INS1 [2]): 1.62%; Activity (INS1 [3]): 2.09%; Activity (INS1 [13]): 0.47%; Activity (INS1 [14]): 11.65%
CCOC(=O)C1=C(C)NC(C)=C(C(=O)OCc2ccccc2)C1c1ccc2c(c1)OCO2 (configuration not stated)	27.3 g	169.35 mg/dL	43.21%	129%	Non-Toxic	Non-Toxic	Non-Toxic	Non-Toxic	–
COC(=O)C1=C(C)NC(C)=C(C(=O)OC(C)C)C1c1ccc2c(c1)OCO2 (configuration not stated)	28.3 g	244.26 mg/dL	18.09%	54%	Non-Toxic	Non-Toxic	Non-Toxic	Non-Toxic	–
CCOC(=O)C1=C(C)NC(C)=C(C(=O)OC)C1c1ccc2c(c1)OCCO2 (configuration not stated)	27.5 g	147.34 mg/dL	50.49%	151%	Non-Toxic	Non-Toxic	Non-Toxic	Non-Toxic	–
CCOC(=O)C1=C(C)NC(C)=C(C(=O)OC(C)(C)C)C1c1cccc2c1OCO2 (configuration not stated)	28.6 g	223.65 mg/dL	0.25%	<1%	Non-Toxic	Non-Toxic	Non-Toxic	Non-Toxic	Activity (Mus musculus [7]): 7.01 uU/ml; Activity (Mus musculus [8]): 1050.5 ng/mL; Activity (Mus musculus [9]): 403.17 pg/mL; Activity (Mus musculus [10]): 175.14 U/ml; Activity (Mus musculus [11]): 183.21 U/ml; Activity (Mus musculus [12]): 20.99 nmol/mL
COC(=O)C1=C(C)NC(C)=C(C(=O)OCc2ccccc2)C1c1cccc2c1OCO2 (configuration not stated)	27.4 g	168.33 mg/dL	43.55%	130%	Non-Toxic	Non-Toxic	Non-Toxic	Non-Toxic	–
CC1=C(C(=O)OC(C)C)C(c2cccc3c2OCO3)C(C(=O)OC(C)C)=C(C)N1	28.9 g	268.23 mg/dL	10.05%	30%	Non-Toxic	Non-Toxic	Non-Toxic	Non-Toxic	–
COc1cccc2c1C(=O)c1c(O)c3c(c(O)c1C2=O)C[C@@](O)(C(=O)CO)C[C@@H]3O[C@H]1C[C@H](N)[C@H](O)[C@H](C)O1 [DOXORUBICIN]	–	–	–	–	–	–	–	–	GI50 [28]: 14.2 µM; inhibition at 10 µM [15]: 41.6%; GI50 [29]: 12.5 µM; inhibition at 10 µM [16]: 38.4%; GI50 [30]: 17.1 µM; inhibition at 10 µM [17]: 35.6%; GI50 [31]: 8.91 µM; inhibition at 10 µM [18]: 45.8%; GI50 [32]: 1.47 µM; inhibition at 10 µM [19]: 33%; GI50 [33]: 11.2 µM; inhibition at 10 µM [20]: 40.9%; GI50 [34]: 9.69 µM; inhibition at 10 µM [21]: 46%; GI50 [35]: 11.6 µM; inhibition at 10 µM [22]: 57.1%
CCOC(=O)C1=C(C)NC(C)=C(C(=O)OC(C)(C)C)C1c1ccc2c(c1)OCO2 (configuration not stated)	27.9 g	297.9 mg/dL	0.1%	<1%	Non-Toxic	Non-Toxic	Non-Toxic	Non-Toxic	–
CCOC(=O)C1=C(C)NC(C)=C(C(=O)OC(C)C)C1c1ccc2c(c1)OCO2 (configuration not stated)	29.2 g	297.87 mg/dL	0.11%	<1%	Non-Toxic	Non-Toxic	Non-Toxic	Non-Toxic	–
COCCOC(=O)C1=C(C)NC(C)=C(C(=O)OC)C1c1ccc2c(c1)OCO2 (configuration not stated)	28.6 g	260.24 mg/dL	12.73%	38%	Non-Toxic	Non-Toxic	Non-Toxic	Non-Toxic	–
COC(=O)C1=C(C)NC(C)=C(C(=O)OC(C)(C)C)C1c1cccc2c1OCO2 (configuration not stated)	28.7 g	297.34 mg/dL	0.29%	<1%	Non-Toxic	Non-Toxic	Non-Toxic	Non-Toxic	–

Source: ChEMBL document CHEMBL5316297, “Mechanistic Insight of Synthesized 1,4-Dihydropyridines as an Antidiabetic Sword against Reactive Oxygen Species” (J Med Chem, 2023)
